Laboratory results: US11119094B2, “Aqueous citrate-buffered metal solutions” (CD DIAGNOSTICS, INC., priority 2017, dated 2021)

Assays:
lymphocytes = test: Lymphocyte Transformation Test for metal sensitivity (stimulation index); type: cell-based; conditions: SI≥4 positive
Text: The Lymphocyte Transformation Test used for Metal Sensitivity Testing measures cell proliferation relative to a negative control.

mononuclear cells = test: Lymphocyte Transformation Test with PWM positive control in the presence of metals (toxicity); type: cell-based; conditions: metals stabilized with citrate
Text: In this example, each metal tested was stabilized with citrate.

polkweed mitogen [PWM]
Stimulation Index (lymphocytes; Subject 19A, 6 Dec. 2016, assay with citrate): 108.15 | Stimulation Index (lymphocytes; Subject 19A, 15 Jul. 2016, assay without citrate): 124 | Stimulation Index (lymphocytes; Subject 21R, 3 Feb. 2017, assay with citrate): 75.85 | Stimulation Index (lymphocytes; Subject 21R, 19 Jul. 2016, assay without citrate): 223 | Stimulation Index (lymphocytes; Subject 20112, 11 Jan. 2017, assay with citrate): 691.43 | Stimulation Index (lymphocytes; Subject 20112, 11 Nov. 2016, assay without citrate): 669.51 | Stimulation Index (lymphocytes; Subject 71390, 4 Nov. 2016, assay without citrate): 119.6 | Stimulation Index (lymphocytes; Subject 71390, 11 Jan. 2017, assay with citrate): 128.6 | Stimulation Index for PWM in the presence of 0.1 mM metals (mononuclear cells; Donor LS 23 89053D): 217 | Stimulation Index for PWM in the presence of 0.1 mM metals (mononuclear cells; Donor LS 23 89054C): 40 | Stimulation Index for PWM in the presence of 0.1 mM metals (mononuclear cells; Donor LS 23 89058C): 202 | Stimulation Index for PWM in the presence of 0.1 mM metals (mononuclear cells; Donor LS 23 89063E): 362
